Earlier results on one compound are cited in patent US8858953B2, “Herbal composition for treating cancer” (priority 2011, dated 2014).

For this data set, the system named is Epidermal Growth Factor Receptor (EGFR) mutation lung cancer. As to conditions: lung cancer patients with EGFR mutation.

As to `C#Cc1cccc(Nc2ncnc3cc(OCCOC)c(OCCOC)cc23)c1` [Erlotinib], the progression free survival result is given as “up to 9 months”.
